For one experiment, the target named is T1, human AT-1 receptors (Homo sapiens, UniProt P30556).
T1 construct: expressed in transfected cells
T1 sequence (P30556 1-359): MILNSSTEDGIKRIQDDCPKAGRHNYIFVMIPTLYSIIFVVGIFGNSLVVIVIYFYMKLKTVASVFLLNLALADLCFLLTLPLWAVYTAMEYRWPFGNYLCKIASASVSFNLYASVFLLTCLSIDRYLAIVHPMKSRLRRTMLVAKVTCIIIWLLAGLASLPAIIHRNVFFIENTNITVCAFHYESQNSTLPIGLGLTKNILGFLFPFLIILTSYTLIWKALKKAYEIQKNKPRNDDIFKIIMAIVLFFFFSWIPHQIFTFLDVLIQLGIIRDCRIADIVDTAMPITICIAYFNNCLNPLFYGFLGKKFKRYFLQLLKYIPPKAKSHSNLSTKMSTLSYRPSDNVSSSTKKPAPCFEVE
Description: Radioligand binding assay, 125I-angiotensin II displacement. The following applies: human AT-1 receptors expressed in mouse cell line L h AT-1-D6; 80 pM 125I-angiotensin II; 1 hour at 25° C.; read-out: IC50 (concentration of antagonist needed to displace 50% of the total specifically bound angiotensin II). As for the experimental part:
The radioligand binding assay is a modification of a method previously described in detail (Gunther et al., Circ. Res. 47:278, 1980). A stable clone of human AT-1 receptors expressed in the mouse cell line L h AT-1-D6 is used. Cells are incubated in Tris buffer with 80 pM of 125I-angiotensin II with or without angiotensin II antagonists for 1 hour at 25° C. The incubation is terminated by rapid filtration and receptor bound ^125 I-angiotensin II trapped on the filter is quantitated with a gamma counter. The potency of angiotensin II antagonists is expressed as the IC50 which is the concentration of antagonist needed to displace 50% of the total specifically bound angiotensin II.

The subject of experiment [1] is pressor response to angiotensin II. Kind of experiment: Inhibition of pressor response to angiotensin II in conscious rats. The experiment is classed as in vivo. The following applies: Rattus norvegicus, po, orally, change in mean arterial pressure in response to intravenous angiotensin II, read-out: IC50 (dose of compound needed to produce 50% inhibition of the control response to angiotensin II). On the procedure: Rats are prepared with indwelling femoral arterial and venous catheters and a stomach tube (Gellai et al., Kidney Int. 15:419, 1979). Two to three days following surgery the rats are placed in a restrainer and blood pressure is continuously monitored from the arterial catheter with a pressure transducer and recorded on a polygraph. The change in mean arterial pressure in response to intravenous injections of […] angiotensin II is compared at various time points prior to and following the administration of the compounds intravenously or orally at doses of 0.1 to 300 mg/k g. The dose of compound needed to produce 50% inhibition of the control response to angiotensin II (IC50) is used to estimate the potency of the compounds.

Regarding `Br.CCCCc1ncc(/C=C(\Cc2cccs2)C(=O)Oc2ccc3c(c2)CCC3)n1Cc1ccc(C(=O)O)c2ccccc12` [Example 1, E-α-[[2-n-butyl-1-[(4-carboxy-1-naphthaleneyl)methyl]-1H-imidazol-5-yl]methylene]-2-thiophenepropanoic Acid Indan-5-yl Ester, Hydrobromide], at human AT-1 receptors, the IC50 was 342 nM. The ED50 in experiment [1] was determined as 0.053 mg/kg.

These data come from patent US5395847A, “Imidazolyl-alkenoic acids” (SmithKline Beecham Corporation, priority 1994, dated 1995).
